From PMC5869419 (Journal of Natural Products, 2018) come the findings set out here.

The subject of series [1] is H3N2 influenza virus A/Hong Kong/68 (HK/68). In words: CPE inhibition assay with HK/68 in MDCK cells. As to conditions: for IC50: Influenza A virus; for anti-influenza virus activity (in words): HK/68 and Jena/8178, CPE inhibition in MDCK cells; for selectivity index IAV HK/68 [CC50/IC50]: CC50 in MDCK cells / IC50 HK/68. In kind it is cell-based.
Series [2] concerns H1N1 influenza virus A/Jena/8178/09 (Jena/8178). Put plainly: CPE inhibition assay with Jena/8178 in MDCK cells. In kind it is cell-based. The following applies: for IC50: Influenza A virus, H1N1, MDCK, 48 h, read-out: IC50 of CPE IAV Jena/8178; for selectivity index IAV Jena/8178 [CC50/IC50]: CC50 in MDCK cells / IC50 Jena/8178.
The test system of series [3] is MDCK cells.
The nature of series [4]: in vitro. The following applies: dog.
Setting [5] is: H3N2, MDCK, 48 h, read-out: IC50 of CPE IAV HK/68.
Where [6] appears, read: H3N2, HK/68 and Jena/8178 together, CPE inhibition in MDCK cells, read-out: IC50 values, anti-influenza virus activity stated for both strains together.
Where [7] appears, read: HK/68 and Jena/8178 together, CPE inhibition in MDCK cells.

Read-outs that look alike come from different tables or passages of the source. Some results are limits rather than exact numbers.

Turning to `CC1(C)C[C@H]2C3=CC[C@@H]4[C@@]5(C)C[C@@H](O)[C@H](O)C(C)(C)[C@@H]5CC[C@@]4(C)[C@]3(C)CC[C@@]2(C(=O)O)C[C@H]1OC(=O)/C=C/c1ccccc1` [21-cinnamoyloxy-maslinic acid], the IC50 in series [1] (setting [5]) is 11.3 ± 7.35 µM; in series [1] (setting [6]), 7 to 11 µM; in series [2] it was 6.9 ± 2.97 µM. The “CC50 in MDCK cells” value in series [3] is “lost their cytotoxicity”. Besides, the CC50 at 72 h in series [4] was greater than 100 µM.
For `CC1(C)C[C@H]2C3=CC[C@@H]4[C@@]5(C)CC[C@H](O)C(C)(C)[C@@H]5CC[C@@]4(C)[C@]3(C)CC[C@@]2(C(=O)O)C[C@H]1OC(=O)/C=C/c1ccccc1` [21-cinnamoyloxy-oleanolic acid] the same measures were 8.9 ± 3.95 µM, 7 to 11 µM, 6.8 ± 4.12 µM, “lost their cytotoxicity” and greater than 100 µM.
As to `C=C(C)[C@@H]1CC[C@]2(C(=O)O)CC[C@]3(CO)[C@H](CC[C@@H]4[C@@]5(C)C[C@@H](O)[C@H](O)C(C)(C)[C@@H]5CC[C@]43C)[C@@H]12` [27-hydroxyalphitolic acid], in series [2], the “selectivity index IAV Jena/8178 [CC50/IC50]” value is greater than 4 and the IC50 is 26.5 ± 4.71 µM. In series [4], the CC50 is greater than 100 µM.
Take `C=C(C)[C@@H]1CC[C@]2(C(=O)O)CC[C@]3(C)[C@H](CC[C@@H]4[C@@]5(C)C[C@@H](O)[C@H](O[C@@H]6O[C@H](CO)[C@@H](O)[C@H](O)[C@H]6O[C@@H]6OC[C@@H](O)[C@H](O)[C@H]6O)C(C)(C)[C@@H]5CC[C@]43C)[C@@H]12` [Compound 1, 3-O-β-D-Xylopyranosyl-(1→2)-β-D-glucopyranosylalphitolic acid]: the “anti-influenza virus activity (in words)” value in series [1] is on record as “only weak or no anti-influenza virus activity”. Besides, the IC50 in series [2] was 38.6 ± 15.7 µM. The compound further registered a CC50 in series [4] greater than 100 µM.
On to `C=C(C)[C@@H]1CC[C@]2(C(=O)O)CC[C@]3(C)[C@H](CC[C@@H]4[C@@]5(C)C[C@@H](O)[C@H](O[C@@H]6O[C@H](CO)[C@@H](O[C@@H]7O[C@H](C)[C@@H](O)[C@H](O)[C@@H]7O)[C@H](O)[C@H]6O[C@@H]6OC[C@@H](O)[C@H](O)[C@H]6O)C(C)(C)[C@@H]5CC[C@]43C)[C@@H]12` [Compound 2, 3-O-β-D-Xylopyranosyl-(1→2)-[α-L-rhamnopyranosyl-(1→4)]-β-D-glucopyranosylalphitolic acid], for which the “selectivity index IAV HK/68 [CC50/IC50]” value in series [1] is given as 11. The IC50 in series [1] (setting [5]) is 1.1 ± 0.44 µM. Also, in series [2], the “selectivity index IAV Jena/8178 [CC50/IC50]” value is recorded as 6 and the IC50 was 1.9 ± 0.08 µM. Further, the CC50 at 72 h in series [4] stood at 10.4 ± 0.52 µM.
For `C=C(C)[C@@H]1CC[C@]2(C(=O)O)CC[C@]3(CO)[C@H](CC[C@@H]4[C@@]5(C)C[C@@H](O)[C@H](O[C@@H]6O[C@H](CO)[C@@H](O)[C@H](O)[C@H]6O[C@@H]6OC[C@@H](O)[C@H](O)[C@H]6O)C(C)(C)[C@@H]5CC[C@]43C)[C@@H]12` [Compound 3, 3-O-β-D-Xylopyranosyl-(1→2)-β-D-glucopyranosyl-27-hydroxyalphitolic acid], the “anti-influenza virus activity (in words)” value in series [1] is “only weak or no anti-influenza virus activity”. The same compound gave a CC50 in series [4] greater than 100 µM.
For the compound `C=C(C)[C@@H]1CC[C@]2(C(=O)O)CC[C@]3(CO)[C@H](CC[C@@H]4[C@@]5(C)C[C@@H](O)[C@H](O[C@@H]6O[C@H](CO)[C@@H](O)[C@H](O)[C@H]6O[C@@H]6O[C@H](CO)[C@@H](O)[C@H](O)[C@H]6O)C(C)(C)[C@@H]5CC[C@]43C)[C@@H]12` [Compound 4, 3-O-β-D-Glucopyranosyl-(1→2)-β-D-glucopyranosyl-27-hydroxyalphitolic acid], the “anti-influenza virus activity (in words)” value in series [1] is “only weak or no anti-influenza virus activity”. In series [2], the “selectivity index IAV Jena/8178 [CC50/IC50]” value is greater than 2 and the IC50 was found to be 43 ± 11.8 µM. The same compound showed a CC50 in series [4] greater than 100 µM.
As for `C[C@H]1O[C@@H](O[C@H]2[C@H](O)[C@@H](O[C@@H]3OC[C@@H](O)[C@H](O)[C@H]3O)[C@H](O[C@H]3[C@H](O)C[C@]4(C)[C@H]5CC=C6[C@@H]7CC(C)(C)CC[C@]7(C(=O)O)CC[C@@]6(C)[C@]5(C)CC[C@H]4C3(C)C)O[C@@H]2CO)[C@@H](O)[C@@H](O)[C@@H]1O` [Compound 5, 3-O-β-D-Xylopyranosyl-(1→2)-[α-L-rhamnopyranosyl-(1→4)]-β-D-glucopyranosylmaslinic acid], the “selectivity index IAV HK/68 [CC50/IC50]” value in series [1] was 9. Besides, the “IC50 values, anti-influenza virus activity stated for both strains together” value in series [1] (setting [7]) is listed as “low micromolar range”. The IC50 in series [1] (setting [5]) is 1.7 ± 0.07 µM. The compound further showed a CC50 at 72 h in series [4] of 15.5 ± 1.69 µM.
Consider `C[C@H]1O[C@@H](O[C@H]2[C@H](O)[C@@H](O[C@@H]3OC[C@@H](O)[C@H](O)[C@H]3O)[C@H](O[C@H]3[C@H](O)C[C@]4(C)[C@H]5CC=C6[C@@H]7CC(C)(C)[C@H](OC(=O)/C=C/c8ccccc8)C[C@]7(C(=O)O)CC[C@@]6(C)[C@]5(C)CC[C@H]4C3(C)C)O[C@@H]2CO)[C@@H](O)[C@@H](O)[C@@H]1O` [Compound 6, 3-O-β-D-Xylopyranosyl-(1→2)-[α-L-rhamnopyranosyl-(1→4)]-β-D-glucopyranosyl-21-cinnamoyloxymaslinic acid], for which the “selectivity index IAV HK/68 [CC50/IC50]” value in series [1] worked out at 3. For the same compound, the “IC50 values, anti-influenza virus activity stated for both strains together” value in series [1] (setting [7]) was “low micromolar range”. Moreover, the IC50 in series [1] (setting [5]) was determined as 1.8 ± 0.23 µM. For the same compound, in series [2], the “selectivity index IAV Jena/8178 [CC50/IC50]” value is 3 and the IC50 is 1.8 ± 0.03 µM. The same compound registered a CC50 at 72 h in series [4] of 5.8 ± 0.69 µM.
For `C[C@H]1O[C@H](O[C@H]2[C@H](O[C@H]3[C@H](O[C@H]4CC[C@]5(C)[C@H]6CC=C7[C@@H]8CC(C)(C)[C@H](OC(=O)/C=C/c9ccccc9)C[C@]8(C(=O)O)CC[C@@]7(C)[C@]6(C)CC[C@H]5C4(C)C)OC[C@@H](O)[C@@H]3O)OC[C@@H](O)[C@@H]2O)[C@@H](O)[C@@H](O)[C@@H]1O` [Compound 7, 3-O-α-L-Rhamnopyranosyl-(1→2)-β-D-xylopyranosyl-(1→2)-β-D-xylopyranosyl-21-cinnamoyloxyoleanolic acid], the “selectivity index IAV HK/68 [CC50/IC50]” value in series [1] is given as 31. The IC50 in series [1] (setting [5]) was 0.05 ± 0.02 µM; in series [1] (setting [6]), 0.05 to 0.27 µM; in series [2], 0.27 ± 0.13 µM. The “selectivity index IAV Jena/8178 [CC50/IC50]” value in series [2] stood at 6. Further, the CC50 at 72 h in series [4] was 1.5 ± 0.8 µM.
With `C[C@H]1O[C@H](O[C@@H]2CO[C@@H](O[C@H]3CC[C@]4(C)[C@H]5CC=C6[C@@H]7CC(C)(C)[C@H](OC(=O)/C=C/c8ccccc8)C[C@]7(C(=O)O)CC[C@@]6(C)[C@]5(C)CC[C@H]4C3(C)C)[C@H](O[C@@H]3OC[C@@H](O)[C@H](O)[C@H]3O[C@H]3O[C@H](C)[C@@H](O)[C@H](O)[C@@H]3O)[C@H]2O)[C@@H](O)[C@@H](O)[C@@H]1O` [Compound 8, 3-O-α-L-Rhamnopyranosyl-(1 →2)-β-D-xylopyranosyl-(1 →2)-[α-L-rhamnopyranosyl-(1 →4)]-β-D-xylopyranosyl-21-cinnamoyloxyoleanolic acid], the “selectivity index IAV HK/68 [CC50/IC50]” value in series [1] amounted to 7. Moreover, the IC50 in series [1] (setting [5]) is 0.17 ± 0.18 µM; in series [1] (setting [6]) it was 0.05 to 0.27 µM; in series [2], 0.16 ± 0.07 µM. Moreover, the “selectivity index IAV Jena/8178 [CC50/IC50]” value in series [2] amounted to 7. In series [4], this compound showed a CC50 at 72 h of 1.2 ± 0.1 µM.
In the case of `C=C(C)[C@@H]1CC[C@]2(C(=O)O)CC[C@]3(C)[C@H](CC[C@@H]4[C@@]5(C)C[C@@H](O)[C@H](O)C(C)(C)[C@@H]5CC[C@]43C)[C@@H]12` [alphitolic acid], in series [4], the CC50 at 72 h worked out at 49.9 ± 6.68 µM.
On the same count and under the same terms, as for `CC1(C)CC[C@]2(C(=O)O)CC[C@]3(C)C(=CC[C@@H]4[C@@]5(C)C[C@@H](O)[C@H](O)C(C)(C)[C@@H]5CC[C@]43C)[C@@H]2C1` [maslinic acid], the figure is 23.3 ± 2.93 µM.
For the compound `CCOC(=O)C1=C[C@@H](OC(CC)CC)[C@H](NC(C)=O)[C@@H](N)C1` [oseltamivir, reference compound], the results for the IC50 in series [1] (setting [5]) and in series [2] were 0.003 ± 0.001 µM and 0.064 ± 0.013 µM, respectively.
